Laboratory results as given in patent US20210002209A1, “NOVEL CRYSTALLINE FORMS OF TAMIBAROTENE FOR TREATMENT OF CANCER” (TRANSGENEX NANOBIOTECH, INC., priority 2018, published 2021).
Values after ≈ are worked out from the molar mass of the structure shown. Read-outs that look alike come from different tables or passages of the source.

What was measured:
[1] = tested on: SK-Mel-5; experiment: IC50 studies, monolayer cell culture assay (CellTiter-Glo cell viability, 72 hours); type: cell-based; settings: SK-Mel-5, skin
Experimental: (§1) Cancer cell lines listed in Table 1, were subjected for testing anti-cancer potency or the half maximal inhibitory concentration (IC50) of tamibarotene molecular complexes.
(§2) The SK-ES-1, U-2 OS, and SAOS-2 cells were cultured in a growth medium that is ATCC-formulated McCoy's 5a Medium Modified, Catalog No. 30-2007. The PC-3, PANC-1, SK-Mel-5, A549, H460, and H1299 were cultured in a growth medium that is ATCC-formulated Dulbecco's Modified Eagle's Medium (DMEM), Catalog No. 30-2002. The cells were seeded on 96-well microtiter plates with 3500 cells per well and cultured in an incubator (Model 3120, Thermo Scientific, USA) with a constant temperature at 37° C. and 5% carbon dioxide (CO2) gas for 24 hours.
(§3) The new tamibarotene molecular complexes were made into a series with concentration of 200 nM to 40 nM, 8 nM, 1.6 nM, 0.32 nM, and 0.064 nM. […]
(§4) The treated cells in the 96 well plate was then further cultured at the same conditions for 72 hours and then subjected for a final cell viability measurement. The measurement used a homogeneous method to determine the number of metabolically active cells presented in each of treatments. A testing reagent for the measurement is a mixture solution of the CellTiter-Glo® 2.0 reagent (CTG, Promega Cat #G9243, USA) and growth medium in 1:1 ratio in this respect.
(§5) The 96-well plate with the new molecular complex treated cells was taken out from incubator after the 72 hours of incubation, and the treatment solution in each well was removed using a multichannel pipette, and 100 μl of the testing reagent were added into each well. The plate was then placed on a plate shaker for 15 min. The plate was covered with a piece of aluminum foil to protect the CTG luminescence during the shaking time.
(§6) Then 90 μl of the 100 μl testing reagent were transferred into an opaque-walled 96-well plate for the CTG luminescence reading on a plate reader (SynergyH4 Hybrid Reader, Biotek, USA). The luminescence intensity of each treatment was positively correlated with the number of cells survived during the treatments.
(§7) All the treatment data was normalized by comparing with the control samples that had only growth medium without any molecular complexes. The half maximal inhibitory concentration (IC50) data was calculated using the nonlinear regression model and dose-responses (inhibition) curve built in the software. Each of treatments was performed in three replications each time and repeated three times for validation. The IC50 average […] (Avg) and standard deviation (STDV) were calculated based on the three replications.

[2] = tested on: U-2 OS; experiment: as above; type: cell-based; settings: sarcoma
Experimental: as §1, §2, §3, §4, §5, §6, §7

[3] = tested on: H1299; experiment: as above; type: cell-based
Experimental: as §1, §2, §3, §4, §5, §6, §7

[4] = tested on: SAOS; experiment: as above; type: cell-based; settings: sarcoma
Experimental: as §1, §2, §3, §4, §5, §6, §7

[5] = tested on: H460; experiment: as above; type: cell-based
Experimental: as §1, §2, §3, §4, §5, §6, §7

[6] = tested on: SK-ES-1; experiment: as above; type: cell-based
Experimental: as §1, §2, §3, §4, §5, §6, §7

[7] = tested on: A549; experiment: as above; type: cell-based; settings: A549, lung
Experimental: as §1, §2, §3, §4, §5, §6, §7

[8] = tested on: PC-3; experiment: as above; type: cell-based; settings: PC-3, prostate
Experimental: as §1, §2, §3, §4, §5, §6, §7

[9] = cited from earlier work
[10] = tested on: sarcoma cell line SK-ES-1; experiment: Tumor sphere formation assay; type: cell-based; settings: SK-ES-1 spheres, diameter over 50 μm, day 6
Text: Cancer stem cells (CSCs) are defined as a small subset of cells within a tumor with the ability to self-renew and often drive tumor progression and recurrence after chemotherapy treatment (Zhou et al. (2015) “A Reliable Parameter to Standardize the Scoring of Stem Cell Spheres,” PLOS One 10(5); e0127348). It is important to study the responses of cancer stem cells or the tumors treated with the new molecular complexes. We have assessed CSC growth using tumor sphere formation assay, which involves culturing cancer cells in low attachment plates in serum free media. Sphere size and diameter was measured using ImageJ software and statistical analysis was performed using Graph Pad Prism Software. […]
On the day 6 of seeding, 10 μl of NucBlue Live Cell Stain ReadyProbes (Invitrogen Cat #R37605, USA) were added into each well for staining to visualize the live cells under the blue fluorescent light. […] Then the plate was brought to the Keyence imaging device (Keyence America, All-in-One Fluorescence Microscope BZ-X800, USA) for image scanning. […]
The sphere image area is calculated as a sum of image area of every individual sphere with diameter over 50 μm in each treatment well. […]
The sarcoma spheres were stained with NucBlue Live Cell Stain ReadyProbes (Invitrogen Cat #R37605) and imaged under 4× objective lens on Keyence imaging scanner (Keyence America, All-in-One Fluorescence Microscope BZ-X800).

[11] = Homo sapiens, Test I, read-out: IC50 Test(I) Avg
[12] = Homo sapiens, Test II, read-out: IC50 Test (II) Avg
[13] = Homo sapiens, Test III, read-out: IC50 Test (III) Avg
[14] = Test I, read-out: IC50 Test(I) Avg
[15] = Test II, read-out: IC50 Test (II) Avg
[16] = Test III, read-out: IC50 Test (III) Avg
[17] = H1299, lung, Test I, read-out: IC50 Test(I) Avg
[18] = H1299, lung, Test II, read-out: IC50 Test (II) Avg
[19] = H1299, lung, Test III, read-out: IC50 Test (III) Avg
[20] = H460, lung, Test I, read-out: IC50 Test(I) Avg
[21] = H460, lung, Test II, read-out: IC50 Test (II) Avg
[22] = H460, lung, Test III, read-out: IC50 Test (III) Avg

**Q.** For `CC1(C)CCC(C)(C)c2cc(NC(=O)c3ccc(C(=O)O)cc3)ccc21` [TAM, 4-[(5,5,8,8-tetramethyl-5,6,7,8-tetrahydronaphthalen-2-yl)carbamoyl]benzoic acid, reference compound], which IC50 [1, 11] is on record?
**A.** > 100 µM

**Q.** And the IC50 [1, 12]?
**A.** > 100 µM

**Q.** And the IC50 [1, 13]?
**A.** > 100 µM

**Q.** What about the IC50 ([2]; Homo sapiens, U2OS, Test I, read-out: IC50 Test(I) Avg) of the same compound?
**A.** > 100 µM

**Q.** What about the IC50 ([2]; Homo sapiens, U2OS, Test II, read-out: IC50 Test (II) Avg) of the same compound?
**A.** 77.7 µM

**Q.** What about the IC50 ([2]; Homo sapiens, U2OS, Test III, read-out: IC50 Test (III) Avg) of the same compound?
**A.** 69.7 µM

**Q.** What about the IC50 ([3]; Homo sapiens, NCI-H1299, H1299, lung, Test I, read-out: IC50 Test(I) Avg) of the same compound?
**A.** 78.9 µM

**Q.** And the IC50 ([3]; Homo sapiens, NCI-H1299, H1299, lung, Test II, read-out: IC50 Test (II) Avg)?
**A.** 67.3 µM

**Q.** What about the IC50 ([3]; Homo sapiens, NCI-H1299, H1299, lung, Test III, read-out: IC50 Test (III) Avg) of the same compound?
**A.** 83 µM

**Q.** What about the IC50 [4, 14] of the same compound?
**A.** 55.4 µM

**Q.** And the IC50 [4, 15]?
**A.** 46.5 µM

**Q.** And the IC50 [4, 16]?
**A.** > 100 µM

**Q.** And the IC50 ([5]; Homo sapiens, NCI-H460, H460, lung, Test I, read-out: IC50 Test(I) Avg)?
**A.** 69.3 µM

**Q.** And the IC50 ([5]; Homo sapiens, NCI-H460, H460, lung, Test II, read-out: IC50 Test (II) Avg)?
**A.** 58.3 µM

**Q.** What about the IC50 ([5]; Homo sapiens, NCI-H460, H460, lung, Test III, read-out: IC50 Test (III) Avg) of the same compound?
**A.** 67.1 µM

**Q.** And the IC50 ([6]; Homo sapiens, SK-ES1, SK-ES-1, sarcoma, Test I, read-out: IC50 Test(I) Avg)?
**A.** > 100 µM

**Q.** And the IC50 ([6]; Homo sapiens, SK-ES1, SK-ES-1, sarcoma, Test II, read-out: IC50 Test (II) Avg)?
**A.** 73.2 µM

**Q.** And the IC50 ([6]; Homo sapiens, SK-ES1, SK-ES-1, sarcoma, Test III, read-out: IC50 Test (III) Avg)?
**A.** 72.5 µM

**Q.** And the IC50 [7, 11]?
**A.** 59.9 µM

**Q.** And the IC50 [7, 12]?
**A.** 60.6 µM

**Q.** What about the IC50 [7, 13] of the same compound?
**A.** 57.8 µM

**Q.** What about the IC50 [8, 11] of the same compound?
**A.** > 100 µM

**Q.** And the IC50 [8, 12]?
**A.** > 100 µM

**Q.** What about the IC50 [8, 13] of the same compound?
**A.** > 100 µM

**Q.** What about the “solubility in DMF, methanol, ethanol, DMSO, and other organic solvents” value [9] of the same compound?
**A.** soluble

**Q.** And the “solubility in acetonitrile, water, and various other buffer solutions” value ([9]; pH 3~7, from CN101200435 (B))?
**A.** insoluble

**Q.** What about the water solubility ([9]; water, drug bank) of the same compound?
**A.** 0.575 µg/mL (≈ 1.64 µM)

**Q.** Which IC50 [3, 17] does the source give for `CC1(C)CCC(C)(C)c2cc(NC(=O)c3ccc(C(=O)O)cc3)ccc21.O=C(O)c1ccc(-c2ccccc2)cc1` [TAM-biphenyl-4-carboxylic acid] here?
**A.** 65.5 µM

**Q.** And the IC50 [3, 18]?
**A.** 59.8 µM

**Q.** What about the IC50 [3, 19] of the same compound?
**A.** 65.3 µM

**Q.** And the IC50 [4, 14]?
**A.** 43.5 µM

**Q.** And the IC50 [4, 15]?
**A.** 37.1 µM

**Q.** And the IC50 [4, 16]?
**A.** > 100 µM

**Q.** What about the IC50 [5, 20] of the same compound?
**A.** 56 µM

**Q.** What about the IC50 [5, 21] of the same compound?
**A.** 51.7 µM

**Q.** And the IC50 [5, 22]?
**A.** 55.2 µM

**Q.** And the IC50 [7, 14]?
**A.** 49.3 µM

**Q.** What about the IC50 [7, 15] of the same compound?
**A.** 41.3 µM

**Q.** And the IC50 [7, 16]?
**A.** 46.3 µM

**Q.** For `CC1(C)CCC(C)(C)c2cc(NC(=O)c3ccc(C(=O)O)cc3)ccc21.O=C(O)c1ccccc1-c1ccccc1C(=O)O` [TAM-diphenic acid], which IC50 [3, 17] is on record?
**A.** 40.8 µM

**Q.** And the IC50 [3, 18]?
**A.** 41.4 µM

**Q.** And the IC50 [3, 19]?
**A.** 39.9 µM

**Q.** And the IC50 [5, 20]?
**A.** 35 µM

**Q.** What about the IC50 [5, 21] of the same compound?
**A.** 34.7 µM

**Q.** And the IC50 [5, 22]?
**A.** 32.3 µM

**Q.** What about the IC50 [7, 14] of the same compound?
**A.** 21.7 µM

**Q.** What about the IC50 [7, 15] of the same compound?
**A.** 38.9 µM

**Q.** What about the IC50 [7, 16] of the same compound?
**A.** 26.6 µM

**Q.** Which results are given for `CC1(C)CCC(C)(C)c2cc(NC(=O)c3ccc(C(=O)O)cc3)ccc21.O=C(O)c1cc(O)c(O)c(O)c1` [TAM-gallic acid]?
**A.** tumor spheres size compared with the parent molecule [10]: reduced tumor spheres size; IC50 [1, 14]: 47.5 µM; IC50 [1, 15]: 64.2 µM; IC50 [1, 16]: 88.5 µM; IC50 [2, 14]: 16.4 µM; IC50 [2, 15]: 13 µM; IC50 [2, 16]: 10.6 µM; IC50 [3, 17]: 11.2 µM; IC50 [3, 18]: 24.8 µM; IC50 [3, 19]: 11.7 µM; IC50 [4, 14]: 11.6 µM; IC50 [4, 15]: 9.98 µM; IC50 [4, 16]: 14.9 µM; IC50 [5, 20]: 42 µM; IC50 [5, 21]: 41.9 µM; IC50 [5, 22]: 41.3 µM; IC50 ([6]; SK-ES-1, sarcoma, Test I, read-out: IC50 Test(I) Avg): 10.1 µM; IC50 ([6]; SK-ES-1, sarcoma, Test II, read-out: IC50 Test (II) Avg): 5.94 µM; IC50 ([6]; SK-ES-1, sarcoma, Test III, read-out: IC50 Test (III) Avg): 6.76 µM; IC50 [7, 14]: 39.9 µM; IC50 [7, 15]: 43.3 µM; IC50 [7, 16]: 39.9 µM; IC50 [8, 14]: 81 µM; IC50 [8, 15]: 90.3 µM; IC50 [8, 16]: 108 µM

**Q.** Which results are given for `CC1(C)CCC(C)(C)c2cc(NC(=O)c3ccc(C(=O)O)cc3)ccc21.NC(=O)c1cccnc1` [TAM-nicotinamide]?
**A.** IC50 [3, 17]: 49.7 µM; IC50 [3, 18]: 55.9 µM; IC50 [3, 19]: 53.9 µM; IC50 [5, 20]: 56.6 µM; IC50 [5, 21]: 51.1 µM; IC50 [5, 22]: 50.3 µM; IC50 [7, 14]: 56.6 µM; IC50 [7, 15]: 59.1 µM; IC50 [7, 16]: 49.8 µM
